According to US9630977B2, “Cephalosporin derivatives and pharmaceutical compositions thereof” (Legochem Biosciences, Inc., priority 2011, dated 2017):
≈ marks a conversion by molar mass, not a printed value. Like-named read-outs stand apart in the source and are kept apart here.

Assays:
Test in all cases: In vitro antibacterial activity test (broth microdilution)
Format in all cases: cell-based
[1] = system: A. calcoaceticus ATCC15473; conditions: A. calcoaceticus ATCC15473
Procedure: (§1) To evaluate antibacterial activity of each of the compounds of Examples 1 to 68, in vitro antibacterial activity test was performed.
(§2) The in vitro antibacterial activity was evaluated by measuring MIC90 (ug/mL) of each of the compounds of Examples 1 to 68, which is defined as the lowest concentration of an antibiotic that will inhibit the visible growth of 90% of microorganisms after incubation as compared with a control group to which the antibiotic is not treated. MIC90 values were measured by the broth microdilution method developed by the Clinical and Laboratory Standards Institute (CLSI) (see CLSI M7-A5, Methods for Dilution Antimicrobial Susceptibility Test for Bacteria that Grow Aerobically-Fifth Edition (2000): CLSI, Villanova, Pa.).
(§3) In vitro antibacterial activity was measured with respect to the following 19 clinical isolates: M. catarrhalis; P. aeruginosa (5 strains); K. pneumoniae (6 strains); A. baumannii (3 strains); E. coli (2 strains); A. calcoaceticus; and E. cloacae.
(§4) Test compounds each (the cephalosporin derivative compounds prepared in Examples 1 to 68) were dissolved in DMSO at the concentration of 10,240 ug/mL, were diluted by two fold with DMSO, and then were diluted by twenty fold with sterilized distilled water. The final concentration in the antibacterial activity test was in the range of […] to 128 ug/mL, and the final concentration of DMSO used as an adjuvant was 2.5% (V/V).

[2] = system: P. aeruginosa 37
Procedure: as §1, §2, §3, §4

[3] = system: P. aeruginosa 40
Procedure: as §1, §2, §3, §4

[4] = system: M. catarrhalis 2524; conditions: M. catarrhalis 2524
Procedure: as §1, §2, §3, §4

[5] = system: A. baumannii 49; conditions: A. baumannii 49
Procedure: as §1, §2, §3, §4

[6] = system: A. baumannii 46; conditions: A. baumannii 46
Procedure: as §1, §2, §3, §4

[7] = system: E. coli β4
Procedure: as §1, §2, §3, §4

[8] = system: K. pneumoniae β14
Procedure: as §1, §2, §3, §4

[9] = system: E. coli AG100
Procedure: as §1, §2, §3, §4

[10] = system: P. aeruginosa 6065Y
Procedure: as §1, §2, §3, §4

[11] = system: E. cloacae β19
Procedure: as §1, §2, §3, §4

[12] = system: A. baumannii 52; conditions: A. baumannii 52
Procedure: as §1, §2, §3, §4

[13] = system: K. pneumoniae 2011E; conditions: K. pneumoniae 2011E
Procedure: as §1, §2, §3, §4

[14] = system: P. aeruginosa 43; conditions: P. aeruginosa 43
Procedure: as §1, §2, §3, §4

[15] = system: P. aeruginosa 1912E
Procedure: as §1, §2, §3, §4

[16] = Acinetobacter calcoaceticus, read-out: MIC90
[17] = Pseudomonas aeruginosa, 37, P. aeruginosa 37, read-out: MIC90
[18] = Pseudomonas aeruginosa, 40, P. aeruginosa 40, read-out: MIC90
[19] = Moraxella catarrhalis, read-out: MIC90
[20] = Acinetobacter baumannii, read-out: MIC90
[21] = Escherichia coli, read-out: MIC90
[22] = Klebsiella pneumoniae, read-out: MIC90
[23] = Escherichia coli, AG100, E. coli AG100, read-out: MIC90
[24] = Pseudomonas aeruginosa, read-out: MIC90
[25] = Enterobacter cloacae, read-out: MIC90
[26] = Klebsiella pneumoniae, 2011E, read-out: MIC90
[27] = Pseudomonas aeruginosa, 1912E, read-out: MIC90

Structure (SMILES)	MIC90 [1, 16] [µg/mL]	MIC90 [2, 17] [µg/mL]	MIC90 [3, 18] [µg/mL]	MIC90 [4, 19] [µg/mL]	MIC90 [5, 20] [µg/mL]	MIC90 [6, 20] [µg/mL]	MIC90 [7, 21] [µg/mL]	MIC90 [8, 22] [µg/mL]	MIC90 [9, 23] [µg/mL]	MIC90 [10, 24] [µg/mL]	MIC90 [11, 25] [µg/mL]	MIC90 [12, 20] [µg/mL]	MIC90 [13, 26] [µg/mL]	MIC90 [14, 24] [µg/mL]	MIC90 [15, 27] [µg/mL]	other results
CC(C)(ON=C(C(=O)NC1C(=O)N2C(C(=O)[O-])=C(C[n+]3cnc(N)c(NCC=CC(=O)NO)c3)CSC12)c1csc(N)n1)C(=O)O (centres unmarked) [Compound 47]	–	–	–	–	–	–	–	–	–	–	–	–	–	–	–	MIC90 [1]: 8 µg/mL (≈ 11.8 µM); MIC90 ([2]; P. aeruginosa 37): 64 µg/mL (≈ 94.6 µM); MIC90 ([3]; P. aeruginosa 40): 32 µg/mL (≈ 47.3 µM); MIC90 [4]: 0.25 µg/mL (≈ 0.369 µM); MIC90 [5]: >128 µg/mL; MIC90 [6]: 16 µg/mL (≈ 23.6 µM); MIC90 [7]: 16 µg/mL (≈ 23.6 µM); MIC90 [8]: 32 µg/mL (≈ 47.3 µM); MIC90 ([9]; E. coli AG100): >128 µg/mL; MIC90 [10]: 128 µg/mL (≈ 189 µM); MIC90 [11]: 128 µg/mL (≈ 189 µM); MIC90 [12]: 128 µg/mL (≈ 189 µM); MIC90 [13]: 4 µg/mL (≈ 5.91 µM); MIC90 [14]: 128 µg/mL (≈ 189 µM); MIC90 [15]: 8 µg/mL (≈ 11.8 µM)
C[C@H](O/N=C(\C(=O)N[C@@H]1C(=O)N2C(C(=O)[O-])=C(C[n+]3cnc(N)c(NCCNC(=O)c4cc(=O)c(O)cn4O)c3)CSC12)c1csc(N)n1)C(=O)O (some centres unmarked) [Compound 3]	0.25 (≈ 0.329 µM)	1 (≈ 1.32 µM)	0.125 (≈ 0.165 µM)	2 (≈ 2.63 µM)	> 128	2 (≈ 2.63 µM)	1 (≈ 1.32 µM)	64 (≈ 84.2 µM)	< 0.0625	0.5 (≈ 0.658 µM)	2 (≈ 2.63 µM)	128 (≈ 168 µM)	1 (≈ 1.32 µM)	0.25 (≈ 0.329 µM)	32 (≈ 42.1 µM)	–
CC(C)(O/N=C(\C(=O)N[C@@H]1C(=O)N2C(C(=O)[O-])=C(C[n+]3cnc(N)c(NCCNC(=O)c4ccc(O)c(O)c4)c3)CSC12)c1csc(N)n1)C(=O)O (some centres unmarked) [Compound 30]	1 (≈ 1.32 µM)	2 (≈ 2.64 µM)	0.5 (≈ 0.661 µM)	–	> 128	1 (≈ 1.32 µM)	2 (≈ 2.64 µM)	16 (≈ 21.1 µM)	0.125 (≈ 0.165 µM)	0.5 (≈ 0.661 µM)	4 (≈ 5.29 µM)	128 (≈ 169 µM)	0.5 (≈ 0.661 µM)	0.5 (≈ 0.661 µM)	1 (≈ 1.32 µM)	–

The next lines start with results.

MIC90 [1, 16] [µg/mL]	MIC90 [2, 17] [µg/mL]	MIC90 [3, 18] [µg/mL]	MIC90 [4, 19] [µg/mL]	MIC90 [5, 20] [µg/mL]	MIC90 [6, 20] [µg/mL]	MIC90 [7, 21] [µg/mL]	MIC90 [8, 22] [µg/mL]	MIC90 [9, 23] [µg/mL]	MIC90 [10, 24] [µg/mL]	MIC90 [11, 25] [µg/mL]	MIC90 [12, 20] [µg/mL]	MIC90 [13, 26] [µg/mL]	MIC90 [14, 24] [µg/mL]	MIC90 [15, 27] [µg/mL]	Structure (SMILES)	other results
2 (≈ 2.59 µM)	4 (≈ 5.18 µM)	4 (≈ 5.18 µM)	1 (≈ 1.3 µM)	> 128	4 (≈ 5.18 µM)	4 (≈ 5.18 µM)	64 (≈ 82.9 µM)	0.25 (≈ 0.324 µM)	16 (≈ 20.7 µM)	> 128	> 128	4 (≈ 5.18 µM)	8 (≈ 10.4 µM)	2 (≈ 2.59 µM)	Cn1cc(O)c(=O)cc1C(=O)NCCNc1c[n+](CC2=C(C(=O)[O-])N3C(=O)[C@@H](NC(=O)/C(=N\OC(C)(C)C(=O)O)c4csc(N)n4)C3SC2)cnc1N (some centres unmarked) [Compound 2]	–
8 (≈ 13.5 µM)	128 (≈ 216 µM)	32 (≈ 54.1 µM)	–	> 128	8 (≈ 13.5 µM)	16 (≈ 27 µM)	8 (≈ 13.5 µM)	1 (≈ 1.69 µM)	128 (≈ 216 µM)	128 (≈ 216 µM)	> 128	1 (≈ 1.69 µM)	4 (≈ 6.76 µM)	8 (≈ 13.5 µM)	CNc1nc[n+](CC2=C(C(=O)[O-])N3C(=O)[C@@H](NC(=O)/C(=N\OC(C)(C)C(=O)O)c4csc(N)n4)C3SC2)cc1N (some centres unmarked) [Compound 39]	–
2 (≈ 3.46 µM)	> 128	16 (≈ 27.7 µM)	–	> 128	64 (≈ 111 µM)	16 (≈ 27.7 µM)	16 (≈ 27.7 µM)	0.5 (≈ 0.866 µM)	64 (≈ 111 µM)	> 128	> 128	0.5 (≈ 0.866 µM)	–	8 (≈ 13.9 µM)	CC(C)(O/N=C(\C(=O)N[C@@H]1C(=O)N2C(C(=O)[O-])=C(C[n+]3cnc(N)c(N)c3)CSC12)c1csc(N)n1)C(=O)O (some centres unmarked) [Compound 36]	–
